Patent US9307763B2, “Ligands for odor receptors and olfactory neurons” (The Regents of the University of California, priority 2010, dated 2016)

Key:
[1] = target: T1, Or98a, ab7A (Drosophila melanogaster, UniProt Q9VAZ3); assay: single-sensillum electrophysiology; format: in vivo; conditions: odorant at 10^-2
T1 construct: The 9 Ors tested are expressed in well-defined olfactory receptor neurons (ORNs) housed within the large and small basiconic sensilla; from tissue; host or cells: D. melanogaster antenna, ab7A olfactory receptor neuron (in vivo recording)
T1 sequence (Q9VAZ3 1-397): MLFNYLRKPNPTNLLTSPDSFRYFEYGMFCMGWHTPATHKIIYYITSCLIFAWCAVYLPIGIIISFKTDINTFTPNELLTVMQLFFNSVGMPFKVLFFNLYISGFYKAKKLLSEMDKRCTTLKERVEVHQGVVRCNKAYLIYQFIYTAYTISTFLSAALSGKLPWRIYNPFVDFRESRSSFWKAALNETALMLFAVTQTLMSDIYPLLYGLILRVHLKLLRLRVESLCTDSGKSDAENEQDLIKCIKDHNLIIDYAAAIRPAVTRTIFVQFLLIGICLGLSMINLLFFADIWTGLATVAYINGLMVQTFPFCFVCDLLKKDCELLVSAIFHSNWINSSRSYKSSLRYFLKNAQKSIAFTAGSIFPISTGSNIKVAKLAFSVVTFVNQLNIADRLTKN
T1 sequence (Q9VNB5 1-486 partner): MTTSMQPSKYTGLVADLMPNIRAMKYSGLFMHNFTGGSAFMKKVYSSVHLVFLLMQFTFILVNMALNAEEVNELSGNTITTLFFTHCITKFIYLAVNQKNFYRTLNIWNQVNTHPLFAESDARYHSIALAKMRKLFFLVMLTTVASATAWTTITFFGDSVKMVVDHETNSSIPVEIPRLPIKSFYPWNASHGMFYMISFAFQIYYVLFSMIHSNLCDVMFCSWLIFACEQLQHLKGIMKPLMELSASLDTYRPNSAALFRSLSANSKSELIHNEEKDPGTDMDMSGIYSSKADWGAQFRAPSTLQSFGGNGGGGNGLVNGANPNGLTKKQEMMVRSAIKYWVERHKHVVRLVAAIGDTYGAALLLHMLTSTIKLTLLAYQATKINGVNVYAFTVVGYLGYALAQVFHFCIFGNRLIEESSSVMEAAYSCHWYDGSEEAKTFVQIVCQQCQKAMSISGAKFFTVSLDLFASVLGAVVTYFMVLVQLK
Method: The results of the in silico screen are provocative. However in order to verify whether these predictions were meaningful, functional evidence was obtained. In order to validate the success of the in silico predictions the responses of 9 Odor receptors using single-sensillum electrophysiology directly on the Drosophila melanogaster antenna were analyzed. For each Odor receptor several odorants were tested from the top 500 predicted hits. A sampling of ˜192 novel odorants were tested with ˜11-21 novel odorants tested for each receptor, which were scattered somewhat randomly within the top 500 predictions for each receptor, providing a relatively unbiased set of chemical structures.
To test identified compounds any number of biological assays can be used to measure ORN activity in the presence of a putative ligand/compounds. […] For the purpose of testing each of these volatile compounds the compounds were diluted to ˜10^−2 in paraffin oil or distilled water. The 9 Ors tested are expressed in well-defined olfactory receptor neurons (ORNs) housed within the large and small basiconic sensilla (ab1-ab7) on the antenna. A previously identified diagnostic panel of odorants was used to distinguish individual classes of sensilla (ab1-ab7) and therefore identified the sensilla that contained the target Or expressing ORN. […]

[2] = test system: CO2 responsive neurons; conditions: […]; averaged across the top 2 responders of the 4 species; cited from earlier work
[3] = target: T2, Or82a (Drosophila melanogaster, UniProt P82986); conditions: single strong ligand of the training set; cited from earlier work
T2 sequence (P82986 1-385): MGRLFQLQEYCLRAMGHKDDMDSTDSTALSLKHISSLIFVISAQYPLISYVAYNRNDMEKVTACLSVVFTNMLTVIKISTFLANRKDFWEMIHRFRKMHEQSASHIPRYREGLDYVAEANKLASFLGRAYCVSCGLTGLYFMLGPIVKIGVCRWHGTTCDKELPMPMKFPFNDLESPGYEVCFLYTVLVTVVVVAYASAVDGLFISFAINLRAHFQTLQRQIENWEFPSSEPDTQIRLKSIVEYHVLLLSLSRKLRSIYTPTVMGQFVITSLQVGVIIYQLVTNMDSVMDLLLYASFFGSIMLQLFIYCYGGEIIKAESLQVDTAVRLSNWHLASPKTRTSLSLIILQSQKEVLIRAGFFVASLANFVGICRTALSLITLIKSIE
T2 sequence (Q9VNB5 1-486 partner): T1 sequence (Q9VNB5 1-486 partner)

CC(=O)OCC=C(C)C [prenyl acetate]
activation of odor receptor (firing rate) [1]: > 250 spikes/sec

CC(=O)OC/C=C(\C)CCC=C(C)C [geranyl acetate, reference compound]
Final Activity [2]: 0 | activation of Or82a [3]: activated strongly
